According to US20080089860A1, “Therapeutic compositions and methods useful in treating cancer” (priority 2006, published 2008):

How the values were obtained:
MKP1 = biological target: T1, MKP1 (Homo sapiens, UniProt P28562); test: In vitro PTPase assay, GST/MKP1; format: biochemical; details: for inhibition of MKP1: section VII comparison
T1 construct: made in house; host or cells: E. coli DH5a
T1 sequence (P28562 13-367 limits assumed): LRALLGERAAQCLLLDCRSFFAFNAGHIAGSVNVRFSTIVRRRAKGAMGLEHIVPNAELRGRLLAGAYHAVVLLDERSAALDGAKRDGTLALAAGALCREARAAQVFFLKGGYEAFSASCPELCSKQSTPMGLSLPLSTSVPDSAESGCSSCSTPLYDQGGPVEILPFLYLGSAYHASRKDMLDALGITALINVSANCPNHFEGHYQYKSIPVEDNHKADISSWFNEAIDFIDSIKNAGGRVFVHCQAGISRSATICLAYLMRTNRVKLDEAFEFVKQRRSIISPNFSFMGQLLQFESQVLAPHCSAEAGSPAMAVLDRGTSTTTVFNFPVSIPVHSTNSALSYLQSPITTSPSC
Method: In vitro PTPase activities were measured using the commercial protein tyrosine phosphatase assay kit (Upstate Biotechnology, Inc. (“UBI”)) following established procedure known to one of skill in the art. This assay measures the in vitro dephosphorylation of a synthetic phosphotyrosine peptide of the sequence Arg-Arg-Leu-Ile-Glu-Asp-Ala-Gle-T- -yr-Ala-Ala-Arg-Gly, wherein the tyrosine is phosphorylated (SEQ ID NO: 3). Briefly, 0.01 µg of GST/PTPase fusion proteins was incubated in 50 µl of Tris buffer (10 mM Tris, pH 7.4) containing different concentrations of inhibitors or chemicals (0-1,000 µg/ml) at 22° C. for 10 minutes, followed by addition of 0.2 mM of the phosphotyrosine peptide and incubation at 22° C. for 18 hours. 100 µl of Malachite Green solution was added and incubated for 5 minutes, and the absorbance at 660 nm was measured after 5 minutes.
In vitro PTPase assays were used to determine the effects of levamisole (Sigma), pentamidine (American Pharmaceutical Partners, Inc.), and ketoconazole (Sigma) on recombinant PTPases, following established procedures (Pathak et al., J. Imumol. 167, 3391 (2001); Pathak et al., Leukemia 16, 2285 (2002), Yi et al., J. Immunol. 169, 5978 (2002)) using a synthetic phosphotyrosine peptide or DiFMUP as the substrate as detailed above in section I.A.2.

WM9 cells = test: WM9 melanoma cell growth, MTT assay; format: cell-based, human; details: for effect on IFN-induced growth inhibition of WM9 cells: pentamidine 0.625-1.25 μg/ml, ketoconazole 40 μg/ml, sodium stibogluconate 12.5-50 μg/ml
Method: For cell proliferation assays, cells were grown in 10% FCS culture medium containing various amounts of IFNs and/or sodium stibogluconate in 96 well plates and cultured at 37° C. for 3 or 6 days as indicated. The numbers of viable cells in proliferation assays were determined by MTT assays as described in Phatak et al., J. Immunol. 167, 3391 (2001).
Dose response curves were generated for each drug alone, and also the combinations. Median effect plots were generated for IFNs alone, sodium stibogluconate alone, and the combination. The combination index (CI) was determined and plotted vs. fraction affected (FA). Data were analyzed in both modes, mutually exclusive and mutually nonexclusive. The interaction between two mutually nonexclusive drugs is described by the Equation CI=D1/Dx1+D2/Dx2+D1D2/Dx1Dx2, where Dx1 and Dx2 are the doses of drug 1 and drug 2 that are required to inhibit growth x %. […] When CI<1, drugs are synergistic, when CI=1, drugs are additive, and when CI>1, drugs are antagonistic.
Renca (Murphy, G. P., and W. J. Hrushesky. 1973. A murine renal cell carcinoma. J Natl Cancer Inst 50:1013), Jurkat (Gillis, S., and J. Watson. 1980. Biochemical and biological characterization of lymphocyte regulatory molecules. V. Identification of an interleukin 2-producing human leukemia T cell line. J Exp Med 152:1709) and WM9 (Forsberg, K., 1. Valyi-Nagy, C. H. Heldin, M. Herlyn, and B. Westermark. 1993. Platelet-derived growth factor (PDGF) in oncogenesis: development of a vascular connective tissue stroma in xenotransplanted human melanoma producing PDGF-BB. Proc Natl Acad Sci USA 90:393) cell lines were obtained from a colleague at the Cleveland Clinic Foundation (CCF) and cultured in RPMI 1640 medium supplemented with 10% fetal calf serum (FCS). […] SSG has been described previously (Yi, T., M. K. Pathak, D. J. Lindner, M. E. Ketterer, C. Farver, and E. C. Borden. 2002. Anticancer activity of sodium stibogluconate in synergy with IFNs. J Immunol 169:5978).

| Structure (SMILES) | inhibition of MKP1 (MKP1) | activity against WM9 cells (WM9 cells; 0.625-20 μg/ml, single agent or with IFN-alpha) | inhibition at 40 µg/mL (WM9 cells; Homo sapiens, WM9, 40 μg/ml, single agent) [%] | effect on IFN-induced growth inhibition of WM9 cells (WM9 cells) | growth inhibition of WM9 cells (WM9 cells; pentamidine 2.5-5 μg/ml, single agent, 6 days) | inhibitory activity against MKP1 (MKP1) | growth of WM9 melanoma cells (WM9 cells; SSG 6.25-200 μg/ml, 6 days) | WM9 cells in day 6 culture (WM9 cells; single agent, 50 μg/ml and 100 μg/ml) |
| --- | --- | --- | --- | --- | --- | --- | --- | --- |
| CC(=O)N1CCN(c2ccc(OCC3COC(Cn4ccnc4)(c4ccc(Cl)cc4Cl)O3)cc2)CC1 (stereo not drawn) [ketoconazole] | substantial inhibition | no apparent activity | 67 | minor augmenting effect | – | – | – | – |
| N=C(N)c1ccc(OCCCCCOc2ccc(C(=N)N)cc2)cc1 [pentamidine] | substantial inhibition | – | – | augmented IFN-alpha-induced growth inhibition | 86-97% | – | – | – |
| O.O.O.O.O.O.O.O.O.O=C([O-])[C@@H]1[O][Sb]2([O-])([O][Sb]34([OH])[O][C@H]([C@H](O)CO)[C@H]([O]3)[C@H](C(=O)[O-])[O]4)[O][C@H]([C@H](O)CO)[C@@H]1[O]2.[Na+].[Na+].[Na+] [sodium stibogluconate] | no obvious effects | – | – | greatly enhanced | – | no obvious inhibitory activity | inhibited by SSG in a dose-dependent manner | killed all cells |
